Results: US20240016804A1, “METHODS AND MATERIALS FOR ASSESSING AND TREATING HYPERTENSIVE DISORDERS” (Mayo Foundation for Medical Education and Research, priority 2019, published 2024)

System: PE-MSC
Assay: Apoptosis assay for MSC (Annexin V, IncuCyte S3, Red Object Count), PE-MSC
Format: cell-based, human
Conditions: dose response 1, 2, 5 and 10 μM, 24 hours
Experimental: MSC isolation from adipose tissue: Abdominal fat tissue (3-5 g) obtained during C-section was cultured at 37° C./5% CO2 in Advanced MEM media supplemented with 5% platelet lysate (PLTmax, Mill Creek Life Sciences, Rochester, MN), which provides a robust growth medium. The third passage of cells was used for phenotype/function analysis. MSC were positive to CD90, CD44, and CD105, negative to CD34, CD31, and CD45 by Flow Cytometry (FlowSight™, Amnis, Seattle, WA), and were able to transdifferentiate into adipocytes, chondrocytes, and osteocytes. For studies in non-pregnant subjects, MSC were isolated from three healthy kidney donors at time of kidney donation.
Apoptosis was assessed by Annexin V reagent (Essen Bioscience) using the IncuCyte S3 Live-Cell Analysis System (Essen Bioscience).
The initial dose response experiments were performed to determine the optimal Dasatinib concentration using the apoptotic assay and IncuCyte S3 Live-Cell Analysis System (Essen Bioscience). Approximately 1×10^6 MSC (PE and NP) in passage #4, were treated with the senolytic drug, Dasatinib at concentrations of 1, 2, 5 and 10 μM (dissolved in 0.1% DMSO) for 24 hours. Three groups were analyzed: 1) cells incubated in media, 2) vehicle: cells treated with 0.1% DMSO, 3) cells treated with Dasatinib. […] Annexin V, added at the beginning of the treatment, labeled apoptotic cells yielding red fluorescence. […]

Cc1nc(Nc2ncc(C(=O)Nc3c(C)cccc3Cl)s2)cc(N2CCN(CCO)CC2)n1 [Dasatinib]
Optimal concentration (from ratios of apoptotic cells): 1 µM
